Counter-ions that a name gives are not always drawn. Like-named read-outs stand apart in the source and are kept apart here. Square brackets hold non-standard residues; d marks the D form. Peptide text beside a SMILES is read from it. dPhe(F5) = N[C@H](Cc1c(F)c(F)c(F)c(F)c1F)C(=O)O; dBpa = N[C@H](Cc1ccc(C(=O)c2ccccc2)cc1)C(=O)O; dCha = N[C@H](CC1CCCCC1)C(=O)O
Columns and labels:
[1] = at the recommended dose; non-patent literature 15; read-out: Cmax in the human studies; cited from earlier work
[2] = Pharmacokinetics of CBP501, single agent study; type: in vivo, human; settings: for AUC(0-inf) / Cmax / clearance / half-life: human
Text: PK was examined in cycle (cy) 1. MTD is the level below that where 2 of 3-6 patients (pts) have DLT during cy 1-2.
In the single agent study, PK was examined in cycle 1. Samples were collected on Days 1 and 15 before the start of the infusion, then at various time points over 24 hr from the start of the infusion, as described below.

[3] = Tissue distribution of 3H-labelled CBP501, NCI-H226 xenograft model; type: in vivo, SCID mice; settings: NCI-H226 and MSTO-211H xenograft tumors, Table 15
Protocol: A suspension of NCI-H226 cells was injected subcutaneously into the flanks of six weeks old male severe […] combined immune deficiency (SCID) mice (Charles River Lab., Wilmington, Mass.). The size of tumors was measured three times a week using a caliper. The volumes were calculated using the following formula: volume (cm^3)=[width^2 (mm)×length (mm)]/2000. The relative tumor volume was expressed as the Vt/V0 index, where Vt is the tumor volume on a measured day, and V0 is the volume of the same tumor just before the first treatment. Mean relative tumor sizes with standard error of mean, SEM, were plotted. Body weight was measured three times weekly from the first treatment, and the weight change was expressed as a percentage of the initial weight. Animals were housed in accordance with guidelines from the Association for the Assessment and Accreditation of Laboratory Animal Care International, and the protocols were approved by the institutional animal care committee of CanBas Co., Ltd.
An N-terminal amino acid, p-benzoylphenylalanyl, was ^3H labeled by Daiichi Kagaku Yakuhin Co., Ltd. (Tokyo, Japan).

MSTO-211H cells = assay: Water soluble tetrazolium (WST) analysis; type: cell-based; settings: 72 hours
Protocol: (§1) The medium was replaced 24 hr after treatment, the cells were incubated for an additional 48 hr, and WST-8 solution (Kishida Chemical Co., Osaka, Japan) was added to each well. After 4 hr of incubation at 37° C., the absorbance at 450 nm was measured by microplate reader (Molecular Devices, Calif.).

NCI-H226 cells = assay: Water soluble tetrazolium (WST) analysis; type: cell-based; settings: 72 hours
Protocol: as §1

[4] = Pharmacokinetics of CBP501, combination study; type: in vivo, human; settings: for Cl / AUC(0-inf) / Cmax / clearance / half-life: combination with cisplatin; for AUC(0-inf) / Cmax / clearance / half-life: human, in vivo
[5] = in vivo, 0.9 mg/m2, single agent, 0.9 mg/m^2, Day 1, mean, N 4
[6] = in vivo, 0.9 mg/m2, single agent, 0.9 mg/m^2, Day 15, mean, N 3
[7] = in vivo, 7.2 mg/m2, single agent, 7.2 mg/m^2, Day 1, mean, N 3
[8] = in vivo, 7.2 mg/m2, single agent, 7.2 mg/m^2, Day 15, mean, N 3
[9] = in vivo, 9.57 mg/m2, single agent, 9.57 mg/m^2, Day 1, mean, N 3
[10] = in vivo, 9.57 mg/m2, single agent, 9.57 mg/m^2, Day 15, mean, N 2
[11] = in vivo, 12.73 mg/m2, single agent, 12.73 mg/m^2, Day 1, mean, N 3
[12] = in vivo, 12.73 mg/m2, single agent, 12.73 mg/m^2, Day 15, mean, N 3
[13] = in vivo, 16.93 mg/m2, single agent, 16.93 mg/m^2, Day 1, mean, N 2
[14] = in vivo, 16.93 mg/m2, single agent, 16.93 mg/m^2, Day 15, mean, N 3
[15] = in vivo, 22.5 mg/m2, single agent, 22.5 mg/m^2, Day 1, mean, N 7
[16] = in vivo, 22.5 mg/m2, single agent, 22.5 mg/m^2, Day 15, mean, N 5
[17] = in vivo, […]2, single agent, […]^2, Day 1, mean, N 3
[18] = in vivo, […]2, single agent, […]^2, Day 1, mean, N 4
[19] = CBP501 7.2 mg/m^2, Day 1, mean, N 3
[20] = CBP501 10.8 mg/m^2, Day 1, mean, N 5
[21] = CBP501 16.2 mg/m^2, Day 1, mean, N 3
[22] = CBP501 24.3 mg/m^2, Day 1, mean, N 2
[23] = CBP501 36.45 mg/m^2, Day 1, mean, N 5

In the case of `N=C(N)NCCC[C@@H](NC(=O)[C@@H](CCCNC(=N)N)NC(=O)[C@@H](CCC(N)=O)NC(=O)[C@@H](CCCNC(=N)N)NC(=O)[C@@H](CCCNC(=N)N)NC(=O)[C@@H](CCCNC(=N)N)NC(=O)[C@@H](CC1CCCCC1)NC(=O)[C@@H](Cc1c(F)c(F)c(F)c(F)c1F)NC(=O)[C@@H](CO)NC(=O)[C@@H](Cc1c[nH]c2ccccc12)NC(=O)[C@@H](CO)NC(=O)[C@H](N)Cc1ccc(C(=O)c2ccccc2)cc1)C(=O)O` [CBP501, H-(D)p-Benzoylphenylalanyl-(D)seryl-(D)tryptophyl-(D)seryl-(D)pentafluorophenylalanyl-(D)cyclohexylalanyl-(D)arginyl-(D)arginyl-(D)arginyl-(D)glutaminyl-(D)arginyl-(D)arginine acetate salt] (H-[dBpa][dS][dW][dS][dPhe(F5)][dCha][dR][dR][dR][dQ][dR][dR]-OH), the Cmax [1] is given as about 4 µM, the “inter-patient variability within dose levels, coefficient of variation” value ([2]; both studies, generally in the range) is given as 20%-40% and the AUC(0-inf) [2, 5] is given as 178 ng·h/mL. The Cmax [2, 5] was 121 ng/mL, the clearance [2, 5] was 2.05 mL/min/kg and the half-life [2, 5] was 0.7 h. It also gave an AUC(0-inf) [2, 6] of 188 ng·h/mL, a Cmax [2, 6] of 138 ng/mL and a clearance [2, 6] of 1.8 mL/min/kg. The half-life [2, 6] was 0.6 h, the AUC(0-inf) [2, 7] was 4390 ng·h/mL and the Cmax [2, 7] was 1920 ng/mL. It also gave a clearance [2, 7] of 0.817 mL/min/kg, a half-life [2, 7] of 1.3 h and an AUC(0-inf) [2, 8] of 3660 ng·h/mL. For the same molecule, the Cmax [2, 8] was 2010 ng/mL, the clearance [2, 8] was 0.933 mL/min/kg and the half-life [2, 8] was 1.1 h. It also gave an AUC(0-inf) [2, 9] of 6480 ng·h/mL, a Cmax [2, 9] of 2890 ng/mL and a clearance [2, 9] of 0.633 mL/min/kg. For the same molecule, the half-life [2, 9] was 2.5 h, the AUC(0-inf) [2, 10] was 5140 ng·h/mL and the Cmax [2, 10] was 2410 ng/mL. The clearance [2, 10] was 0.783 mL/min/kg, the half-life [2, 10] was 1.2 h and the AUC(0-inf) [2, 11] was 6340 ng·h/mL. For the same molecule, the Cmax [2, 11] was 2730 ng/mL, the clearance [2, 11] was 0.983 mL/min/kg and the half-life [2, 11] was 1.4 h. It also gave an AUC(0-inf) [2, 12] of 7660 ng·h/mL, a Cmax [2, 12] of 3080 ng/mL and a clearance [2, 12] of 0.8 mL/min/kg. For the same molecule, the half-life [2, 12] was 2.4 h, the AUC(0-inf) [2, 13] was 14300 ng·h/mL and the Cmax [2, 13] was 4920 ng/mL. The clearance [2, 13] was 0.617 mL/min/kg, the half-life [2, 13] was 2 h and the AUC(0-inf) [2, 14] was 12600 ng·h/mL. For the same molecule, the Cmax [2, 14] was 4640 ng/mL, the clearance [2, 14] was 0.6 mL/min/kg and the half-life [2, 14] was 2.9 h. For the same molecule, the AUC(0-inf) [2, 15] was 16500 ng·h/mL, the Cmax [2, 15] was 6080 ng/mL and the clearance [2, 15] was 0.667 mL/min/kg. For the same molecule, the half-life [2, 15] was 3.2 h, the AUC(0-inf) [2, 16] was 20200 ng·h/mL and the Cmax [2, 16] was 7490 ng/mL. The clearance [2, 16] was 0.583 mL/min/kg, the half-life [2, 16] was 4 h and the clearance [2, 17] was 0.917 mL/min/kg. The half-life [2, 17] was 1.2 h, the clearance [2, 18] was 0.867 mL/min/kg and the half-life [2, 18] was 1.7 h. The half-life ([2]; in vivo, […]2, single agent, […]^2, Day 15, mean, N 3) was 1.6 h, the “differences in PK between day 1 and day 15 or between single-agent and combination administration” value ([2]; in vivo) was “No consistent differences” and the “dose range over which dose-proportionality of Cmax and AUC0-inf was observed” value ([2]; in vivo) was 40 fold. The Cl ([2]; single agent, 0.9 mg/m^2, Day 1, mean, N 4) was 5240 mL/h/m^2, the Cl ([2]; single agent, 0.9 mg/m^2, Day 15, mean, N 3) was 4908 mL/h/m^2 and the Cl ([2]; single agent, 7.2 mg/m^2, Day 1, mean, N 3) was 1802 mL/h/m^2. The Cl ([2]; single agent, 7.2 mg/m^2, Day 15, mean, N 3) was 2041 mL/h/m^2, the Cl ([2]; single agent, 9.57 mg/m^2, Day 1, mean, N 3) was 1599 mL/h/m^2 and the Cl ([2]; single agent, 9.57 mg/m^2, Day 15, mean, N 2) was 1954 mL/h/m^2. The Cl ([2]; single agent, 12.73 mg/m^2, Day 1, mean, N 3) was 2081 mL/h/m^2, the Cl ([2]; single agent, 12.73 mg/m^2, Day 15, mean, N 3) was 1677 mL/h/m^2 and the Cl ([2]; single agent, 16.93 mg/m^2, Day 1, mean, N 2) was 1395 mL/h/m^2. It also gave a Cl ([2]; single agent, 16.93 mg/m^2, Day 15, mean, N 3) of 1372 mL/h/m^2, a Cl ([2]; single agent, 22.5 mg/m^2, Day 1, mean, N 7) of 1458 mL/h/m^2 and a Cl ([2]; single agent, 22.5 mg/m^2, Day 15, mean, N 5) of 1206 mL/h/m^2. The Cl ([2]; single agent, […]^2, Day 1, mean, N 3) was 2197 mL/h/m^2, the Cl ([2]; single agent, […]^2, Day 1, mean, N 4) was 2908 mL/h/m^2 and the “dose-proportionality of Cmax and AUC” value ([2]; single agent, days 1 and 15, over the dose range evaluated, acetate salt) was “showed dose-proportionality”. The “concentration of CBP501 in the subcutaneous tumor xenograft” value [3] was 1 to 2 µM, the “cytotoxicity of cisplatin on addition of CBP501” value (MSTO-211H cells) was “increased” and the “cytotoxicity of cisplatin on addition of CBP501” value (NCI-H226 cells) was “increased”. It also gave a Cl [4, 19] of 2752 mL/h/m^2, a Cl [4, 20] of 2198 mL/h/m^2 and a Cl [4, 21] of 2124 mL/h/m^2. For the same molecule, the Cl [4, 22] was 1217 mL/h/m^2, the Cl [4, 23] was 971 mL/h/m^2 and the Cl ([4]; CBP501 […]^2, Day 1, mean, N 6) was 2526 mL/h/m^2. The AUC(0-inf) [4, 19] was 2820 ng·h/mL, the Cmax [4, 19] was 1770 ng/mL and the clearance [4, 19] was 1.25 mL/min/kg. It also gave a half-life [4, 19] of 1.7 h, an AUC(0-inf) [4, 20] of 5350 ng·h/mL and a Cmax [4, 20] of 2550 ng/mL. For the same molecule, the clearance [4, 20] was 0.883 mL/min/kg, the half-life [4, 20] was 1.7 h and the AUC(0-inf) [4, 21] was 7640 ng·h/mL. For the same molecule, the Cmax [4, 21] was 3490 ng/mL, the clearance [4, 21] was 0.9 mL/min/kg and the half-life [4, 21] was 2.8 h. It also gave an AUC(0-inf) [4, 22] of 20200 ng·h/mL, a Cmax [4, 22] of 6830 ng/mL and a clearance [4, 22] of 0.567 mL/min/kg. The half-life [4, 22] was 4.1 h, the AUC(0-inf) [4, 23] was 39400 ng·h/mL and the Cmax [4, 23] was 9490 ng/mL. It also gave a clearance [4, 23] of 0.417 mL/min/kg, a half-life [4, 23] of 3.7 h and a clearance ([4]; CBP501 […]^2, Day 1, mean, N 6) of 1.05 mL/min/kg. For the same molecule, the half-life ([4]; CBP501 […]^2, Day 1, mean, N 6) was 3.9 h and the “dose-proportionality of Cmax and AUC” value ([4]; in combination with cisplatin, over the dose range evaluated, acetate salt) was “showed dose-proportionality”.

Reference: US20100112089A1, “PEPTIDE COMPOUND AND USE THEREOF” (Takeda Pharmaceutical Company Limited, priority 2008, published 2010)
